The values that follow are results of earlier work, collected in patent US9492406B2, “Pharmaceutical composition” (IPCA Laboratories Limited, priority 2012, dated 2016).

The bioavailability is the share of a dose that reaches the circulation, judged against a reference dose that is usually intravenous.

Like-named read-outs stand apart in the source and are kept apart here.

The conditions of data set [1]: theophylline products of US2008248117.
Assay in data set [2]: not given
The source holds these as a separate data set.

In the case of `Cn1c(=O)c2[nH]cnc2n(C)c1=O` [Theophylline crystals, Theophylline], the Resistance to crushing in data set [1] is reported as 140. Besides, the “Release after 15 min in %” value (theophylline products of US2008248117, 15 min) is listed as 34%. Besides, the “Release after 30 min in %” value (theophylline products of US2008248117, 30 min) is on record as 78%.
In the case of `NC(=O)N1c2ccccc2C=Cc2ccccc21` [Carbamazepine crystals, Carbamazepine], the “Release after 15 min in %” value (carbamazepine products of US2008248117, 15 min) is recorded as 22%. Under “carbamazepine products of US2008248117, 30 min”, the “Release after 30 min in %” value is recorded as 53%.
With `O=C1C(O)=C([C@H]2CC[C@H](c3ccc(Cl)cc3)CC2)C(=O)c2ccccc21` [Atovaquone, trans-2-[4-(4-chlorophenyl)cyclohexyl]-3-hydroxy-1,4-naphthoquinone], the bioavailability in data set [2] (microfluidized microparticles supplied as suspension, with fat diet) was 46-48%; in data set [2] (oral non-sized suspension) it was “about 23%”; in data set [2] (oral non-sized suspension, under fat fed condition), 46-48%; in data set [2] (tablet formulations), roughly 12%.
